According to patent US11739074B2, “Ras inhibitors” (Revolution Medicines, Inc., priority 2019, dated 2023):

The molecules below were run on AsPC-1 (K-Ras G12D) (assay: CellTiter-Glo cell viability assay, AsPC-1). Details: Homo sapiens, ASPC1, 120 h, AsPC-1, K-Ras G12D, 5-day treatment; read-out: AsPC-1 Cell Viability IC50.
Assay type: cell-based
Method: Determination of Cell Viability in RAS Mutant Cancer Cell Lines
Protocol: CellTiter-Glo® Cell Viability Assay
Note—The following protocol describes a procedure for monitoring cell viability of K-Ras mutant cancer cell lines in response to a compound of the invention. Other RAS isoforms may be employed, though the number of cells to be seeded will vary based on cell line used.
Test compounds (132.5 nL) were directly dispensed into the assay plates containing cells. […] On day 5, assay plates and their contents were equilibrated to room temperature for approximately 30 minutes. […] Luminescence was measured using the PerkinElmer Enspire. Data were normalized by the following: (Sample signal/Avg. DMSO)*100. The data were fit using a four-parameter logistic fit.

Compound	IC50 [µM]
CCn1c(-c2cccnc2[C@H](C)OC)c2c3cc(ccc31)-c1cc(O)cc(c1)C[C@H](NC(=O)[C@@H](COC1CCN(C(=O)[C@H]3CN3)CC1)C(C)C)C(=O)N1CCC[C@H](N1)C(=O)OCC(C)(C)C2 [Compound 211]	> 10
CCn1c(-c2cnccc2COC)c2c3cc(ccc31)-c1cccc(c1)C[C@H](NC(=O)[C@H](C(C)C)N(C)C(=O)CCN=C=NC(C)(C)C)C(=O)N1CCC[C@H](N1)C(=O)OCC(C)(C)C2 [79 A and B]	1 to 10
CCn1c(-c2cccnc2[C@H](C)OC)c2c3cc(ccc31)-c1cc(O)cc(c1)C[C@H](NC(=O)[C@H](C(C)C)N(C)C(=O)c1nc(NC(=O)[C@H]3CN3)cs1)C(=O)N1CCC[C@H](N1)C(=O)OCC(C)(C)C2 [Compound 212]	> 10
CCn1c(-c2cccnc2[C@H](C)OC)c2c3cc(ccc31)-c1cccc(c1)C[C@H](NC(=O)[C@H](C(C)C)N(C)C(=O)CCN=C=NCc1ccccc1OC)C(=O)N1CCC[C@H](N1)C(=O)OCC(C)(C)C2 [Compound 73]	1 to 10
CCn1c(-c2cccnc2[C@H](C)OC)c2c3cc(ccc31)-c1cc(O)cc(c1)C[C@H](NC(=O)[C@H](C(C)C)N(C)C(=O)N1CCN(C(=O)[C@H]3CN3)C(=O)C1)C(=O)N1CCC[C@H](N1)C(=O)OCC(C)(C)C2 [Compound 143]	> 10
CCn1c(-c2cccnc2[C@H](C)OC)c2c3cc(ccc31)-c1cc(O)cc(c1)C[C@H](NC(=O)[C@@H](COC1CN(C(=O)[C@H]3CN3)C1)C(C)C)C(=O)N1CCC[C@H](N1)C(=O)OCC(C)(C)C2 [Compound 312]	> 10
CCn1c(-c2cnccc2COC)c2c3cc(ccc31)-c1cccc(c1)C[C@H](NC(=O)[C@H](C(C)C)N(C)C(=O)CCN=C=NCc1ccccc1C)C(=O)N1CCC[C@H](N1)C(=O)OCC(C)(C)C2 [82 A and B]	1 to 10
CCn1c(-c2cccnc2[C@H](C)OC)c2c3cc(ccc31)-c1cc(O)cc(c1)C[C@H](NC(=O)[C@H](C(C)C)N(C)C(=O)N1CC(NC(=O)[C@H]3CN3)C1)C(=O)N1CCC[C@H](N1)C(=O)OCC(C)(C)C2 [Compound 189]	> 10
CCn1c(-c2cccnc2[C@H](C)OC)c2c3cc(ccc31)-c1cc(O)cc(c1)C[C@H](NC(=O)[C@H](C(C)C)N1CC[C@@H](NC(=O)[C@H]3CN3)C1=O)C(=O)N1CCC[C@H](N1)C(=O)OCC(C)(C)C2 [Compound 130]	> 10
CCn1c(-c2cccnc2[C@H](C)OC)c2c3cc(ccc31)-c1cc(O)cc(c1)C[C@H](NC(=O)[C@H](C(C)C)N(C)C(=O)N1CC(NC(=O)[C@@H]3CN3)C1)C(=O)N1CCC[C@H](N1)C(=O)OCC(C)(C)C2 [Compound 188]	> 10
CCn1c(-c2cnccc2COC)c2c3cc(ccc31)-c1cccc(c1)C[C@H](NC(=O)[C@H](C(C)C)N(C)C(=O)CCN=C=NCc1ccc(OC)cc1OC)C(=O)N1CCC[C@H](N1)C(=O)OCC(C)(C)C2 [61 A and B]	1 to 10
CCn1c(-c2cccnc2[C@H](C)OC)c2c3cc(ccc31)-c1cc(O)cc(c1)C[C@H](NC(=O)[C@H](C(C)C)N1CCC3(CN(C(=O)[C@@H]4CN4)C3)C1=O)C(=O)N1CCC[C@H](N1)C(=O)OCC(C)(C)C2 [Compound 109]	> 10
CCn1c(-c2cccnc2[C@H](C)OC)c2c3cc(ccc31)-c1cc(O)cc(c1)C[C@H](NC(=O)[C@H](C(C)C)N(C)C(=O)C1CC3(C1)CN(C(=O)[C@@H]1CN1)C3)C(=O)N1CCC[C@H](N1)C(=O)OCC(C)(C)C2 [Compound 180]	> 10
CCn1c(-c2cccnc2[C@H](C)OC)c2c3cc(ccc31)-c1cc(O)cc(c1)C[C@H](NC(=O)[C@H](C(C)C)N(C)C(=O)c1ccc([C@H]3CN3)cc1)C(=O)N1CCC[C@H](N1)C(=O)OCC(C)(C)C2 [Compound 145]	> 10
CCn1c(-c2cccnc2[C@H](C)OC)c2c3cc(ccc31)-c1cc(O)cc(c1)C[C@H](NC(=O)[C@H](C(C)C)N(C)C(=O)N1C[C@@H]3[C@H]1CCN3C(=O)[C@H]1CN1)C(=O)N1CCC[C@H](N1)C(=O)OCC(C)(C)C2 [Compound 250]	> 10
CCn1c(-c2cccnc2[C@H](C)OC)c2c3cc(ccc31)-c1cc(O)cc(c1)C[C@H](NC(=O)[C@H](C(C)C)N(C)C(=O)[C@H]1CCN(C(=O)[C@H]3CN3)[C@H]1C)C(=O)N1CCC[C@H](N1)C(=O)OCC(C)(C)C2 [Compound 206]	> 10
CCn1c(-c2cnccc2COC)c2c3cc(ccc31)-c1cc(O)cc(c1)C[C@H](NC(=O)[C@H](C(C)C)N(C)C(=O)CN1C(=O)[C@H]3N[C@H]3C1=O)C(=O)N1CCC[C@H](N1)C(=O)OCC(C)(C)C2 [Compound 98]	> 10

Compound	IC50 [µM]
CCn1c(-c2cccnc2[C@H](C)OC)c2c3cc(ccc31)-c1cc(O)cc(c1)C[C@H](NC(=O)[C@H](C(C)C)N(C)C(=O)N(C)C1CN(C(=O)[C@H]3CN3)C1)C(=O)N1CCC[C@H](N1)C(=O)OCC(C)(C)C2 [Compound 203]	> 10
CCn1c(-c2cccnc2[C@H](C)OC)c2c3cc(ccc31)-c1cc(O)cc(c1)C[C@H](NC(=O)[C@H](C(C)C)N(C)C(=O)N1CCN(C(=O)[C@@H]3CN3)C(=O)C1)C(=O)N1CCC[C@H](N1)C(=O)OCC(C)(C)C2 [Compound 194]	> 10
CCn1c(-c2cccnc2[C@H](C)OC)c2c3cc(ccc31)-c1cc(O)cc(c1)C[C@H](NC(=O)[C@H](C(C)C)N1CC[C@H](NC(=O)[C@H]3CN3)C1=O)C(=O)N1CCC[C@H](N1)C(=O)OCC(C)(C)C2 [Compound 213]	> 10
CCn1c(-c2cccnc2[C@H](C)OC)c2c3cc(ccc31)-c1cc(O)cc(c1)C[C@H](NC(=O)[C@H](C(C)C)N(C)C(=O)c1ccc([C@@H]3CN3)cc1)C(=O)N1CCC[C@H](N1)C(=O)OCC(C)(C)C2 [Compound 131]	> 10
CCn1c(-c2cccnc2[C@H](C)OC)c2c3cc(ccc31)-c1cc(O)cc(c1)C[C@H](NC(=O)[C@H](C(C)C)N(C)C(=O)N1CC[C@@H](N(C)C(=O)[C@H]3CN3)C1)C(=O)N1CCC[C@H](N1)C(=O)OCC(C)(C)C2 [Compound 252]	> 10
CCn1c(-c2cccnc2[C@H](C)OC)c2c3cc(ccc31)-c1cc(O)cc(c1)C[C@H](NC(=O)[C@H](C(C)C)N1CC[C@@]3(CCN(C(=O)[C@@H]4N[C@@H]4C4CC4)C3)C1=O)C(=O)N1CCC[C@H](N1)C(=O)OCC(C)(C)C2 [Compound 128]	1 to 10
CCn1c(-c2cnccc2COC)c2c3cc(ccc31)-c1cccc(c1)C[C@H](NC(=O)[C@H](C(C)C)N(C)C(=O)CCN=C=Nc1ccc(OC)cc1)C(=O)N1CCC[C@H](N1)C(=O)OCC(C)(C)C2 [15 A and B]	> 10
CCn1c(-c2cccnc2[C@H](C)OC)c2c3cc(ccc31)-c1cc(O)cc(c1)C[C@H](NC(=O)[C@H](C(C)C)N(C)C(=O)N1C[C@@H]3[C@H]1CCN3C(=O)[C@@H]1CN1)C(=O)N1CCC[C@H](N1)C(=O)OCC(C)(C)C2 [Compound 251]	> 10
CCn1c(-c2cnccc2COC)c2c3cc(ccc31)-c1cccc(c1)C[C@H](NC(=O)[C@H](C(C)C)N(C)C(=O)CC1(N=C=Nc3ccc(OC)cc3)CC1)C(=O)N1CCC[C@H](N1)C(=O)OCC(C)(C)C2 [65 A and B]	1 to 10
CCn1c(-c2cnccc2COC)c2c3cc(ccc31)-c1cc(O)cc(c1)C[C@H](NC(=O)[C@H](C(C)C)N(C)C(=O)c1ccc(NC(=O)[C@H]3CN3)cn1)C(=O)N1CCC[C@H](N1)C(=O)OCC(C)(C)C2 [47 A and B]	> 10
CCn1c(-c2cccnc2[C@H](C)OC)c2c3cc(ccc31)-c1cccc(c1)C[C@H](NC(=O)[C@H](C(C)C)N(C)C(=O)[C@H]1CC[C@H](N=C=NCc3ccccc3OC)C1)C(=O)N1CCC[C@H](N1)C(=O)OCC(C)(C)C2 [Compound 76]	1 to 10
CCn1c(-c2cccnc2[C@H](C)OC)c2c3cc(ccc31)-c1csc(n1)C[C@H](NC(=O)[C@H](C(C)C)N(C)C(=O)N1CC[C@H]1CN(C)C(=O)[C@@H]1CN1)C(=O)N1CCC[C@H](N1)C(=O)OCC(C)(C)C2 [Compound 235]	> 10
CCn1c(-c2cccnc2[C@H](C)OC)c2c3cc(ccc31)-c1cc(O)cc(c1)C[C@H](NC(=O)[C@H](C(C)C)N1CCC3(CN(C(=O)[C@H]4CN4)C3)C1=O)C(=O)N1CCC[C@H](N1)C(=O)OCC(C)(C)C2 [Compound 115]	> 10
CCn1c(-c2cccnc2[C@H](C)OC)c2c3cc(ccc31)-c1cc(O)cc(c1)C[C@H](NC(=O)[C@H](C(C)C)N(C)C(=O)N1CC[C@@H](N(C)C(=O)[C@@H]3CN3)C1)C(=O)N1CCC[C@H](N1)C(=O)OCC(C)(C)C2 [Compound 253]	> 10
CCn1c(-c2cccnc2[C@H](C)OC)c2c3cc(ccc31)-c1cccc(c1)C[C@H](NC(=O)[C@H](C(C)C)N(C)C(=O)[C@H]1C[C@H](N=C=Nc3c(C)cccc3C)C1)C(=O)N1CCC[C@H](N1)C(=O)OCC(C)(C)C2 [Compound 126]	> 10
CCn1c(-c2cnccc2COC)c2c3cc(ccc31)-c1cccc(c1)C[C@H](NC(=O)[C@H](C(C)C)N1CC[C@@H](CN=C=NCCOC)C1)C(=O)N1CCC[C@H](N1)C(=O)OCC(C)(C)C2 [Compound 80]	1 to 10

Same assay, conditions: Homo sapiens, ASPC1, 120 h, read-out: AsPC-1 Cell Viability IC50, AsPC-1, K-Ras G12D, 5-day treatment

Compound	IC50 [µM]
CCn1c(-c2cccnc2[C@H](C)OC)c2c3cc(ccc31)-c1cc(O)cc(c1)C[C@H](NC(=O)[C@H](C(C)C)N(C)C(=O)CN(C)C(=O)[C@H]1N[C@@H]1C1CC1)C(=O)N1CCC[C@H](N1)C(=O)OCC(C)(C)C2 [Compound 135]	0.1 to 1

Each molecule was assayed on AsPC-1 (K-Ras G12D) (assay: Potency assay: pERK in AsPC-1 cells). Details: Homo sapiens, ASPC1; AsPC-1 cells, K-Ras G12D; read-out: pERK EC50 (AsPC-1 KRAS G12D).
Assay type: cell-based

Compound	EC50 [µM]
CCn1c(-c2cnccc2COC)c2c3cc(ccc31)-c1cccc(c1)C[C@H](NC(=O)[C@H](C(C)C)N(C)C(=O)CCN=C=NC(C)(C)C)C(=O)N1CCC[C@H](N1)C(=O)OCC(C)(C)C2 [79 A and B]	< 5
CCn1c(-c2cccnc2[C@H](C)OC)c2c3cc(ccc31)-c1cccc(c1)C[C@H](NC(=O)[C@H](C(C)C)N(C)C(=O)[C@H]1CC[C@H](N=C=NC(C)C)C1)C(=O)N1CCC[C@H](N1)C(=O)OCC(C)(C)C2 [Compound 124]	< 5
